{"source": "patent US9512086B2", "about": "“Compound for promoting apoptosis of cancer cells and a pharmaceutical composition containing the same and uses thereof” (National Chiao Tung University, priority 2014, dated 2016)", "key": {"A549 cells [1]": {"system": "A549 cells", "test": "Cell growth, cell number by hemocytometer", "type": "cell-based, human", "conditions": "30 μM for 24 hours, then cultured 2-6 days", "method": "The cells were washed with PBS after the treatment. […] The cell number was calculated with hemocytometer."}, "[2]": {"molecular_target": "T1, RET (product of ret proto-oncogene) (Homo sapiens, UniProt P07949)", "T1 construct": "purchased Merck Millipore (KinaseProfiler service)", "T1 sequence (P07949 29-1114)": "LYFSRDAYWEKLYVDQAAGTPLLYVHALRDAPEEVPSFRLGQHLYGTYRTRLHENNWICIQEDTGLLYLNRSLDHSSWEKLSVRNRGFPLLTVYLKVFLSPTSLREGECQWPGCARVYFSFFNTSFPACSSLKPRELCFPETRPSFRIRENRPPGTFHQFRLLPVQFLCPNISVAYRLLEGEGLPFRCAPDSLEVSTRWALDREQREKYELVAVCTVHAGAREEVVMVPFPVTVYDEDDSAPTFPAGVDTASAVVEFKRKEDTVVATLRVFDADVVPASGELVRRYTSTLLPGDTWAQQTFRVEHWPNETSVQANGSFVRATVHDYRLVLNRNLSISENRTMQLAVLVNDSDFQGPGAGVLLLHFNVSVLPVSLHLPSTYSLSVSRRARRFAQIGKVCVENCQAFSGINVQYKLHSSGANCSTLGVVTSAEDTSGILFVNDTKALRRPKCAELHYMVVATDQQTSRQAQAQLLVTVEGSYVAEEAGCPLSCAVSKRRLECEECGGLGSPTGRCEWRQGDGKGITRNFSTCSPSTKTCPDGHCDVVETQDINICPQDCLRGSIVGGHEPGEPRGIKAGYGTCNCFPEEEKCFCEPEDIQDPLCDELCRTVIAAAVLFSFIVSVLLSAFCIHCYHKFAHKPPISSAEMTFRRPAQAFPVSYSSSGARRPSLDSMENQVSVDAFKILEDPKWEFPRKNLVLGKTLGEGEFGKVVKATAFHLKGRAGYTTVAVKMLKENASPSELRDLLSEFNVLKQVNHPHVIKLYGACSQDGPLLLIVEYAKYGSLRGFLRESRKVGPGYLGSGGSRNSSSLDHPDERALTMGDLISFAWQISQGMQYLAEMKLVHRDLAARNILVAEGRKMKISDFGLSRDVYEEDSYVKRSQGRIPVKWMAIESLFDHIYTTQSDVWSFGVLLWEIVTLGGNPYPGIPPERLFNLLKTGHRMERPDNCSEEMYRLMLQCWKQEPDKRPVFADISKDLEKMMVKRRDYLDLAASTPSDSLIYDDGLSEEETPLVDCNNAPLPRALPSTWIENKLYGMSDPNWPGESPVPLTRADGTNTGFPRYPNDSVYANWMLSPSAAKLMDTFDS", "test": "KinaseProfiler assay, RET", "type": "biochemical", "conditions": "RET; 10 μM; read-out: KAR value (kinase activity remaining)", "text": "(§1) The kinase activity remaining (KAR) value is […] related to kinase activity. […]"}, "A549 cell line": {"system": "A549 cell line", "test": "MTT cell viability, A549 cell line", "type": "cell-based, human"}, "[3]": {"molecular_target": "T2, CSNK2A1 (casein kinase-2) (Homo sapiens, UniProt P68400)", "T2 construct": "purchased Merck Millipore (KinaseProfiler service)", "T2 sequence (P68400 whole entry)": "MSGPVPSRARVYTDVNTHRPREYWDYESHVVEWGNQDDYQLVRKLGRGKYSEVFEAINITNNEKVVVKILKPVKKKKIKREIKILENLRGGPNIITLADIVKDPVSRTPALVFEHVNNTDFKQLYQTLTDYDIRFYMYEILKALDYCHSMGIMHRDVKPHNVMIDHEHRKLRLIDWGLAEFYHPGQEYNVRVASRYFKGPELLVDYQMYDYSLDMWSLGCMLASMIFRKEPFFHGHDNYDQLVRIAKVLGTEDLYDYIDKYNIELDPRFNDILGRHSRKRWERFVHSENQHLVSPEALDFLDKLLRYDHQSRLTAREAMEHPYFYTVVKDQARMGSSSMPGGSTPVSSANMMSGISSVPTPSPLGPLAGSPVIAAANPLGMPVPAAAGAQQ", "test": "KinaseProfiler assay, CSNK2A1", "type": "biochemical", "conditions": "CSNK2A1; 10 μM; read-out: KAR value (kinase activity remaining)", "text": "as §1"}, "A549 cells [4]": {"system": "A549 cells", "test": "Cell cycle analysis, PI staining and flow cytometry", "type": "cell-based, human", "conditions": "24 hours", "method": "After the treatment, the cells were collected and fixed with ice-cold 70% ethanol overnight at −20° C. After centrifugation at 1500 rpm for 5 minutes, the pellets were treated with 4 μg/ml PI solution containing 1% Triton X-100 and 50 μg/ml RNase at 37 °C for 30 minutes in the dark. To avoid cell aggregation, the cell solutions were filtrated through nylon membrane (Becton-Dickinson, San Jose, Calif.). Subsequently, the samples were analyzed by flow cytometry. For each measurement, 10,000 cells were analyzed for DNA content. The percentage of cell cycle phases was quantified by ModFit LT software (Ver. 2.0, Becton-Dickinson)."}, "[5]": {"molecular_target": "T3, SYK (splenic tyrosine kinase) (Homo sapiens, UniProt P43405)", "T3 construct": "purchased Merck Millipore (KinaseProfiler service)", "test": "KinaseProfiler assay, SYK", "type": "biochemical", "conditions": "SYK; 10 μM; read-out: KAR value (kinase activity remaining)", "text": "as §1"}, "A549 cells [6]": {"system": "A549 cells", "test": "Survivin overexpression (pCT-GFP-sur8 transfection) and MTT cell viability", "type": "cell-based, human", "conditions": "A549 cells transfected with pCT-GFP-sur8 vs pCT-GFP2", "experimental": "To further determine the effect that Analogue-18 inhibits surviving so as to induce apoptosis. The pCT-GFP2 and pCT-GFP-sur8 were employed for transfection using Lipofectamine™ 2000 (Invitrogen) according to the manufacturer's instructions. The pCT-GFP-sur8 overexpressed surviving, and the pCT-GFP2 only overexpressed green fluorescent protein and was used as a control. A549 cells were plated in 60-mm Petri dish at a density of 2×10^6 per well for 16 to 20 hours, then were transfected with 20 μg of pCT-GFP-sur8 or pCT-GFP2 in serum-free medium for 8 hours at 37° C. in a CO2 incubator. Then, the equal amount medium with 20% fetal bovine serum (FBS) was added without removing the transfection mixture. And proceed the incubation for additional 24 hours. After transfection, the cells were subjected to cytotoxicity assay according to Example 2 and Western blot analysis according to Example 4."}, "[7]": {"test": "MTT cell viability, HFL1 normal lung fibroblasts", "type": "cell-based", "conditions": "human, HFL1 normal lung fibroblast cells, 0 to 40 μM", "experimental": "(§2) After drug treatment, the cells were washed with PBS and replaced with fresh complete RPMI-1640 medium for 2 days. Thereafter, the medium was replaced and the cells were incubated with 0.5 mg/mL of MTT reagent (Sigma Chemical Co., St. Louis, Mo.) in complete RPMI-1640 medium for 4 hours. The intensity of formazan was measured at 565 nm using a plate reader (VERSAmax, Molecular Dynamics, Sunnyvale, Calif.). The relative percentage of cell viability was calculated by dividing the absorbance of treated cells by that of the control in each experiment."}, "survivin [8]": {"system": "survivin", "test": "Western blot of survivin protein expression in A549 cells", "conditions": "0 to 40 μM, 24 hours", "method": "The protease inhibitors including 1 μg/ml aprotinin, 0.5 μg/ml leupeptin, and 100 μg/ml 4-(2-aminoethyl)benzenesulfonyl fluoride were added to the cell suspensions. The lysates were vibrated for 30 minutes at 4° C. and centrifuged at 10,000 rpm for 10 minutes. The protein concentrations were determined by the BCA protein assay kit (Pierce, Rockford, Ill.). […] The membranes were blocked overnight at 4° C. using blocking buffer (5% non-fat dried milk in solution containing 50 mM Tris/HCl (pH 8.0), 2 mM CaCl2, 80 mM NaCl, 0.05% Tween 20 and 0.02% sodium azide). The membranes were sequentially hybridized with primary antibody and followed with a horseradish peroxidase-conjugated secondary antibody. The protein bands were visualized on the X-ray film using the enhanced chemiluminescence detection system (PerkinElmer Life and Analytical Sciences, Boston, Mass.). […] To verify equal protein loading and transfer, actin was used as the protein loading control. The gel digitizing software, Un-Scan-It gel (Ver. 5.1, Silk Scientific, Inc., Orem, Utah), was used to analyze the intensity of protein bands on X-ray film.\nA549 cells were plated at a density of 1×10^6 cells per 60-mm Petri dish in complete medium for 16 to 20 hours. […] To verify equal protein loading and transfer, actin was used as the protein loading control."}, "[9]": {"molecular_target": "T4, MAPK14 (stress-activated protein kinase-2a) (Homo sapiens, UniProt Q16539)", "T4 construct": "purchased Merck Millipore (KinaseProfiler service)", "T4 sequence (Q16539 whole entry)": "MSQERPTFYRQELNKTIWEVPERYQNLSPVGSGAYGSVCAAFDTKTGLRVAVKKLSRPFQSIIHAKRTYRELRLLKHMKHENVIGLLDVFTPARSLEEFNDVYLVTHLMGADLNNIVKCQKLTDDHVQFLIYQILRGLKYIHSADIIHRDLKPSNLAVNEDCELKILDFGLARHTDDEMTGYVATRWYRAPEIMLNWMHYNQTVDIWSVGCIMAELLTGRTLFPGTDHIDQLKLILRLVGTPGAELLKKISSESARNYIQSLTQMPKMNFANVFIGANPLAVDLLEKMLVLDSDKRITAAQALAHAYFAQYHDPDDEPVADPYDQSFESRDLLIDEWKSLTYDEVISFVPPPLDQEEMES", "test": "KinaseProfiler assay, MAPK14", "type": "biochemical", "conditions": "MAPK14; 10 μM; read-out: KAR value (kinase activity remaining)", "text": "as §1"}, "[10]": {"molecular_target": "T5, LIMK1 (LIM motif-containing protein kinase-1) (Homo sapiens, UniProt P53667)", "T5 construct": "purchased Merck Millipore (KinaseProfiler service)", "T5 sequence (P53667 whole entry)": "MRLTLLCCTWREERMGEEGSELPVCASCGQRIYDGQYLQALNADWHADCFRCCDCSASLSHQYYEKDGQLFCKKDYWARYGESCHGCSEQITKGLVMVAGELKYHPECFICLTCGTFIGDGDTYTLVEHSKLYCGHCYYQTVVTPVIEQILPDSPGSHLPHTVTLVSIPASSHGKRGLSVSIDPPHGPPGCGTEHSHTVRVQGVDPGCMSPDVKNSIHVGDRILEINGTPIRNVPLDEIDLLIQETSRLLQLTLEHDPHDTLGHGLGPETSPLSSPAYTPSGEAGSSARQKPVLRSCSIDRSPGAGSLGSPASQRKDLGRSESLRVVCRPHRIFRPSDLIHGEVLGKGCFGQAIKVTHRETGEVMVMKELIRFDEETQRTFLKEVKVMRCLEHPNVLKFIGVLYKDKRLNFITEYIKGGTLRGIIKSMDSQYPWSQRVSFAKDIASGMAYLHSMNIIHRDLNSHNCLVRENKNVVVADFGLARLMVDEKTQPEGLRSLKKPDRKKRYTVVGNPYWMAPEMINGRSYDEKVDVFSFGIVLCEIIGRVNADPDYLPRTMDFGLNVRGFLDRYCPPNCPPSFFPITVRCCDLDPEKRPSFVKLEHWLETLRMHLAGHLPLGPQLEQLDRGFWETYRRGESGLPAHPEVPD", "test": "KinaseProfiler assay, LIMK1", "type": "biochemical", "conditions": "LIMK1; 10 μM; read-out: KAR value (kinase activity remaining)", "text": "as §1"}, "EGFR protein kinase": {"molecular_target": "T6, EGFR protein kinase (Homo sapiens, UniProt P00533)", "T6 construct": "purchased Promega", "T6 sequence (P00533 25-1210)": "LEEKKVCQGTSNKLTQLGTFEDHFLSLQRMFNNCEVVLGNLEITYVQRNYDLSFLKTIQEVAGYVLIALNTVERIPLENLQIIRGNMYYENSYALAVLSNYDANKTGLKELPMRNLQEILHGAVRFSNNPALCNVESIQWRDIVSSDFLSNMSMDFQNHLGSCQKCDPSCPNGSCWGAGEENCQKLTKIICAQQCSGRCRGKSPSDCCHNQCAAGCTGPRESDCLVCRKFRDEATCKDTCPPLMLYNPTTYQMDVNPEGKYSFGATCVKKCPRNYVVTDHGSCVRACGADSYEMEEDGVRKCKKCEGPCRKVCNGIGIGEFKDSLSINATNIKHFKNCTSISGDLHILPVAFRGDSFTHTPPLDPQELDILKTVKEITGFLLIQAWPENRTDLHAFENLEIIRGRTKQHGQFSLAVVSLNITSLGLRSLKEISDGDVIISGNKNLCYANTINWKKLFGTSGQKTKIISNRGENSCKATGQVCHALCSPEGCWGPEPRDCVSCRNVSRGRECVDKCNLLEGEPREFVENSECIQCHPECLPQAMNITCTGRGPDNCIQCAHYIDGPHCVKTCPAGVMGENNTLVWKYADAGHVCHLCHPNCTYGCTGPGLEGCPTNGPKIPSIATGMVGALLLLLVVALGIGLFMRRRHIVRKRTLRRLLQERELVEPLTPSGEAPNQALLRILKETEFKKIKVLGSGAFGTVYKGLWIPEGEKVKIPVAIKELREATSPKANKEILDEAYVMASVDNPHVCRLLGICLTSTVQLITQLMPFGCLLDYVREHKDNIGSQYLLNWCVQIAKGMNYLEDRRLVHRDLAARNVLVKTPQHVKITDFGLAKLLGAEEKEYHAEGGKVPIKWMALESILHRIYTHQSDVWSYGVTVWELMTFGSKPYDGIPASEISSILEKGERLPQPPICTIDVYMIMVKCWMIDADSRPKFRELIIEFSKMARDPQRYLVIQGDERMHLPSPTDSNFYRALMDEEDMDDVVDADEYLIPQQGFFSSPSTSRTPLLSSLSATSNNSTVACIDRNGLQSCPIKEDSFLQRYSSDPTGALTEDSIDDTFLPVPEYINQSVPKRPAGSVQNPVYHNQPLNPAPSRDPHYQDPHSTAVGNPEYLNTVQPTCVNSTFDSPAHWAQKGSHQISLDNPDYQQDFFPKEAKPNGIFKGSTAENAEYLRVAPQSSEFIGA", "test": "ADP-Glo Kinase Assay, EGFR protein kinase activity", "type": "biochemical"}, "[11]": {"system": "CL3 human lung cancer cell line", "test": "MTT cell viability, CL3 cells", "type": "cell-based", "conditions": "24 hours", "experimental": "as §2"}, "survivin [12]": {"system": "survivin", "test": "RT-PCR of survivin gene expression in A549 cells", "type": "cell-based, human", "conditions": "0 to 40 μM, 24 hours", "experimental": "After the treatment, total cellular RNA was purified by ZR RNA MiniPrep™ (Zymo Research, Irvine, Calif.) according to the manufacturer's protocol. RNA concentrations were determined by spectrophotometry. cDNAs were synthesized by SuperScript™ III reverse transcriptase with oligo (dT)12-18 primer (Invitrogen). Each reverse transcript was amplified with GAPDH as an internal control. Reverse transcription polymerase chain reaction (RT-PCR) was performed by a DNA thermal cycler (Mastercycler gradient, Hamburg, Germany). […] The conditions of RT-PCR are stated as followed: the initial denaturation was performed at 94° C. for 2 minutes, followed by 30 cycles at 94° C. for 30 seconds, 56° C. for 30 seconds, and 72° C. for 40 seconds; and 72° C. for 5 minutes. The PCR products were visualized on 1.2% agarose gels with ethidium bromide staining under UV transillumination, and photograph was taken by a camera DH27-S3 (Medclub, Taoyuan, Taiwan)."}, "MARK2 (PAR-1Ba)": {"molecular_target": "T7, MARK2 (PAR-1Ba) (Homo sapiens, UniProt Q7KZI7)", "T7 construct": "purchased Merck Millipore (KinaseProfiler service)", "T7 sequence (Q7KZI7 1-725 isoform Q7KZI7-4)": "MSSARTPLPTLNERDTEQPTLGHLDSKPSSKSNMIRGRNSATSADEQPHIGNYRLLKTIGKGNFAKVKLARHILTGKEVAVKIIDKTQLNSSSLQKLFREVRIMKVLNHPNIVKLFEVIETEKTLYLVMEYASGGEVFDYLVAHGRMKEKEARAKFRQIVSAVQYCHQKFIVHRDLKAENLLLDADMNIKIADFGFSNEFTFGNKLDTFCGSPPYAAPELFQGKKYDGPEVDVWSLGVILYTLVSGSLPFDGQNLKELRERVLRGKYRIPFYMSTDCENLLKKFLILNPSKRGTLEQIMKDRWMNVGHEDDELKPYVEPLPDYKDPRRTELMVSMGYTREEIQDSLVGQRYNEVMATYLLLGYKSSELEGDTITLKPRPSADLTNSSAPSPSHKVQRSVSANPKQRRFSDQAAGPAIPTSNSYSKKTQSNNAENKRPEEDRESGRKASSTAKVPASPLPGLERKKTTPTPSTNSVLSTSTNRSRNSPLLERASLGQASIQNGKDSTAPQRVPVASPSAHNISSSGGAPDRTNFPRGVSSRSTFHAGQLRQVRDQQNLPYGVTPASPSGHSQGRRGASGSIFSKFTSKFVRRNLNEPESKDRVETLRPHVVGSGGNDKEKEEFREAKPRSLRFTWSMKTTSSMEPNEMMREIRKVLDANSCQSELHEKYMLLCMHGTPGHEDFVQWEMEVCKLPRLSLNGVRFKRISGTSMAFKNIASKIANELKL", "test": "KinaseProfiler assay, MARK2", "type": "biochemical", "conditions": "MARK2; 10 μM; read-out: KAR value (kinase activity remaining)", "text": "as §1"}}, "note": "“Also recorded” adds a separate entry of the source."}
{"compound": "CCCCCCCCCCCCOC(=O)CCC(=O)N1CCN(CCCOc2cc3c(Nc4ccc(F)c(Cl)c4)ncnc3cc2OC)CC1", "note": "[Analogue-18, dodecyl 4-(4-(3-(4-(3-chloro-4-fluorophenylamino)-7-methoxyquinazolin-6-yloxy)propyl)piperazin-1-yl)-4-oxobutanoate]", "values": [{"measurement": "cell growth of A549 cells", "setting": "A549 cells [1]", "result": "inhibit cell growth of A549 cells, and Analogue-18 is more effective"}, {"measurement": "remaining activity at 10 µM", "setting": "[2]", "result": 98, "unit": "%"}, {"measurement": "toxicity effect on A549 cell line", "setting": "A549 cell line; 24 hours, in comparison with Iressa", "result": "best toxicity effect; also recorded: more effective on reducing cell viability than Iressa"}, {"measurement": "toxicity effects", "setting": "A549 cell line; A549, 40 μM, 24 hours", "result": "more than 99%"}, {"measurement": "increased toxicity effect", "setting": "A549 cell line; A549 cell line, 40 μM", "result": "15-20 times"}, {"measurement": "viability at 10 µM", "setting": "A549 cell line; Homo sapiens, A549 cell line, 10 μM, 24 hours, MTT", "result": 95.5, "unit": "%"}, {"measurement": "viability at 20 µM", "setting": "A549 cell line; Homo sapiens, A549 cell line, 20 μM, 24 hours, MTT", "result": 86.8, "unit": "%"}, {"measurement": "viability at 40 µM", "setting": "A549 cell line; Homo sapiens, A549 cell line, 40 μM, 24 hours, MTT", "result": 5.7, "unit": "%"}, {"measurement": "viability at 60 µM", "setting": "A549 cell line; Homo sapiens, A549 cell line, 60 μM, 24 hours, MTT", "result": 2, "unit": "%"}, {"measurement": "viability at 80 µM", "setting": "A549 cell line; Homo sapiens, A549 cell line, 80 μM, 24 hours, MTT", "result": 2.3, "unit": "%"}, {"measurement": "remaining activity at 10 µM", "setting": "[3]", "result": 76, "unit": "%"}, {"measurement": "fractions of G1, S and G2/M phases", "setting": "A549 cells [4]; 0 to 40 μM", "result": "does not significantly alter"}, {"measurement": "average percentage of sub-G1 fractions", "setting": "A549 cells [4]; 40 μM", "result": 66.7, "unit": "%"}, {"measurement": "remaining activity at 10 µM", "setting": "[5]", "result": 87, "unit": "%"}, {"measurement": "resistance of survivin-overexpressing cells to induced apoptosis", "setting": "A549 cells [6]", "result": "the transfection of pCT-GFP-sur8 was more resistant to the Analogue-18-induced apoptosis than pCT-GFP2"}, {"measurement": "viability at 24 h", "setting": "[7]", "result": "> 30", "unit": "%"}, {"measurement": "survivin protein expression", "setting": "survivin [8]", "result": "significantly inhibited surviving protein expression"}, {"measurement": "remaining activity at 10 µM", "setting": "[9]", "result": 87, "unit": "%"}, {"measurement": "remaining activity at 10 µM", "setting": "[10]", "result": 82, "unit": "%"}, {"measurement": "IC50", "setting": "EGFR protein kinase; by the IVIS system", "result": "~130", "unit": "nM"}, {"measurement": "IC50", "setting": "EGFR protein kinase; by the Luminometer", "result": "~126", "unit": "nM"}, {"measurement": "reducing cell viability", "setting": "[11]; CL3, 0 to 40 μM, compared with Iressa", "result": "more effective on reducing cell viability than Iressa"}, {"measurement": "toxicity effects", "setting": "[11]; CL3, 40 μM", "result": "more than 99%"}, {"measurement": "survivin gene expression", "setting": "survivin [12]", "result": "significantly inhibited in a concentration-dependent manner"}, {"measurement": "remaining activity at 10 µM", "setting": "MARK2 (PAR-1Ba)", "result": 84, "unit": "%"}]}
